The values that follow are results of earlier work, collected in patent US7704724B1 (priority 2006, dated 2010).

One series has as its target Jack Bean urease (Canavalia ensiformis, UniProt P07374). Conditions: read-out: fluoride inhibition constant (Ki).
The target of series [1] is urease from Klebsiella aerogenes (Klebsiella aerogenes, UniProt P18314). Conditions: read-out: fluoride inhibition constant (Ki).
urease from Klebsiella aerogenes, sequence (P18314 whole entry): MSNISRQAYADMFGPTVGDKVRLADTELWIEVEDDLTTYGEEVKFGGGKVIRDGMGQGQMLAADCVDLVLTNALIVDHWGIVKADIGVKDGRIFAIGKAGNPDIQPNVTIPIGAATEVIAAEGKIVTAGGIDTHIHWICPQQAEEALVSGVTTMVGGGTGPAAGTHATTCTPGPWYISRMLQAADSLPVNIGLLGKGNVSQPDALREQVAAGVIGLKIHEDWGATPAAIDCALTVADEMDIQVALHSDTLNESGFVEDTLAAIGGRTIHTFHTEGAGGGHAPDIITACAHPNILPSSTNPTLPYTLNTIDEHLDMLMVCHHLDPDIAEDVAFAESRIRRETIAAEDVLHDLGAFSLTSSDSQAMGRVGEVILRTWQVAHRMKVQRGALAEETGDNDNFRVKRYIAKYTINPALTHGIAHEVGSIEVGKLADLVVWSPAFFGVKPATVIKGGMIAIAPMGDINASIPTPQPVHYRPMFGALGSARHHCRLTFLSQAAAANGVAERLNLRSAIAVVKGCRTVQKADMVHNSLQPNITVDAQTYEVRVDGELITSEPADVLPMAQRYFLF
urease from Klebsiella aerogenes, sequence (P18315 whole entry partner): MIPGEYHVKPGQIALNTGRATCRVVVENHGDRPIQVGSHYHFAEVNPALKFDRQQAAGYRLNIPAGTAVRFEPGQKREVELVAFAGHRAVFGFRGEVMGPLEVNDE
urease from Klebsiella aerogenes, sequence (P18316 whole entry partner): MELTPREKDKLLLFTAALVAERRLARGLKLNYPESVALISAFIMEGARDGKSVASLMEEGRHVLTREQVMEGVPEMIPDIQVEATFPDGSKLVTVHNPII

Jack Bean urease, sequence (P07374 whole entry, looked up): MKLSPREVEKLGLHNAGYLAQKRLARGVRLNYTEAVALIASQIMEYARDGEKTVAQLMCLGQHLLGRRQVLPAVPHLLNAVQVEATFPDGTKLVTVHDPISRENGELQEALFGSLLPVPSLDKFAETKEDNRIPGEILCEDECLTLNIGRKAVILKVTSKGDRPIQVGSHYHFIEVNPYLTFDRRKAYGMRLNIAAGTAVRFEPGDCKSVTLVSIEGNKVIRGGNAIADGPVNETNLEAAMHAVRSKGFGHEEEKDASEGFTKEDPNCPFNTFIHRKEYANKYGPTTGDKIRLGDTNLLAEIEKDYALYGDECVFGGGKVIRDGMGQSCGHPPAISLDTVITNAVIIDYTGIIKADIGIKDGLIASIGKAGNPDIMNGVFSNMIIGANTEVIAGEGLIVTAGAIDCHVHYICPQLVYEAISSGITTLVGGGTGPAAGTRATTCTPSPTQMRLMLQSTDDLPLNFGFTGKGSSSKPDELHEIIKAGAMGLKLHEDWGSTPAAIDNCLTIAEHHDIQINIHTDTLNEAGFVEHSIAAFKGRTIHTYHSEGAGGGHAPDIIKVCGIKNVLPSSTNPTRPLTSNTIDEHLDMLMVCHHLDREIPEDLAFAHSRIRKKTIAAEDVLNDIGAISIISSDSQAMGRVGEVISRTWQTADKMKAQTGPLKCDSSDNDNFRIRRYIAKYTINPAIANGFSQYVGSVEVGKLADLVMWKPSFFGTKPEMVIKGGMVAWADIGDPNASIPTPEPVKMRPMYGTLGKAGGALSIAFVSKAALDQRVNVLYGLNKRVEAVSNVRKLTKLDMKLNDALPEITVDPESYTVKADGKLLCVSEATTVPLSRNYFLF

Consider `F` [fluoride], for which the Ki was 1000 µM on Jack Bean urease and 200 µM in series [1].
